Tested on: MV4-11 cells
Experiment: In vitro proliferation (Cell Titer Glo, 6 days) of Compound 51 in combination with gilteritinib, midostaurin or decitabine, MV4-11
Type: cell-based
Set-up: key to Synergy/antagonism call (maxR test), MV4-11 Cell Proliferation: synergy is indicated by “**”; antagonism is indicated by “*”; no asterisk: absence of any asterisk indicates an additive effect
Procedure: 3) In Vitro Proliferation—Menin-MLL Inhibitor in Combination with FLT3 Inhibitor (Gilteritinib or Midostaurin), DNA Intercalating Agent (Idarubicin) or Hypomethylating Agent (Decitabine)
The effect of Compound 51 in combination with gilteritinib, midostaurin, idarubicin or decitabine was determined in proliferation assays.
AML cell lines MOLM-13, OCI-AML3 and MV4-11 were purchased from DSMZ. MOLM-13 were grown in RPMI medium supplemented with 10% Fetal Bovine Serum (FBS) and 1% penicillin/streptomycin. MV4-11 cells were grown in IMDM medium supplemented with 10% FBS and 1% penicillin/streptomycin. OCI-AML3 cells were cultured in 80-90% alpha-MEM (with or without ribo- and deoxyribonucleosides)+10-20% FBS. All cell lines were cultured at 37° C. in 5% CO2 atmosphere.
AML cell lines (10-20×10^3 cells/well) were seeded in 96-well plates and grown for 6 days in serum (10%)-containing medium in the presence or absence of inhibitors at the indicated concentrations. Proliferation was analyzed by means of a Cell Titer Glo assay using the […] (Promega, Madison, WI, USA), according to the manufacturer's instructions. Data are mean with standard deviation from two to four independent experiments in technical triplicates.
R-based Biochemically Intuitive Generalized Loewe (BIGL) model implemented with a highest single agent (HSA) null model. Specifically, the BIGL methodology was applied to calculate drug-drug interactions (Van der Borght, K., Tourny, A., Bagdziunas, R. et al. BIGL: Biochemically Intuitive Generalized Loewe null model for prediction of the expected combined effect compatible with partial agonism and antagonism. Sci Rep 7, 17935 (2017); Thas, O., Tourny, A., Verbist, B., Hawinkel, S., Nazarov, M., Mutambanengwe, K., & Bijnens, L. Statistical detection of synergy: New methods and a comparative study. Pharmaceutical Statistics (2021)).
Synergy matrix results of the BIGL analysis of the cell line data with HSA as mean model calculated on the basis of the cellular metabolic activity using Cell Titer-Glo assay. Bootstrap confidence intervals are indicated. Effect sizes and their confidence intervals are shown. […] No significant average effect if zero is included in the interval.

[1] = Compound 51 0.01 μm + Decitabine 0.0015 μM
[2] = Compound 51 0.01 μm + Decitabine 0.035 μM
[3] = Compound 51 0.01 μm + Decitabine 0.15 μM
[4] = Compound 51 0.01 μm + Gilteritinib 0.0005 μM
[5] = Compound 51 0.05 μm + Decitabine 0.15 μM
[6] = Compound 51 0.05 μm + Decitabine 1.5 μM
[7] = Compound 51 0.05 μm + Gilteritinib 0.0005 μM

Structure (SMILES): CC(=O)N1CCC(CN2CC[C@@H](Cc3cn(-c4ccc(F)cc4C(=O)N(C)C(C)C)c4cncc(C)c34)C2)CC1 [Compound 51]
- Effect size (BIGL, HSA null model), MV4-11 Cell Proliferation (Compound 51 0.0001 μm + Midostaurin 0.0012 μM): −0.03
- Effect size (BIGL, HSA null model), MV4-11 Cell Proliferation (Compound 51 0.0001 μm + Midostaurin 0.006 μM): 0.13
- Effect size (BIGL, HSA null model), MV4-11 Cell Proliferation (Compound 51 0.0001 μm + Midostaurin 0.025 μM): 0.02
- Effect size (BIGL, HSA null model), MV4-11 Cell Proliferation (Compound 51 0.0001 μm + Midostaurin 0.05 μM): −0.05
- Effect size (BIGL, HSA null model), MV4-11 Cell Proliferation (Compound 51 0.0001 μm + Midostaurin 0.1 μM): −0.02
- Effect size (BIGL, HSA null model), MV4-11 Cell Proliferation (Compound 51 0.0001 μm + Midostaurin 0.5 μM): 0.03
- Effect size (BIGL, HSA null model), MV4-11 Cell Proliferation (Compound 51 0.001 μm + Decitabine 0.0015 μM): −0.01
- Effect size (BIGL, HSA null model), MV4-11 Cell Proliferation (Compound 51 0.001 μm + Decitabine 0.035 μM): −0.03
- Effect size (BIGL, HSA null model), MV4-11 Cell Proliferation (Compound 51 0.001 μm + Decitabine 0.15 μM): 0
- Effect size (BIGL, HSA null model), MV4-11 Cell Proliferation (Compound 51 0.001 μm + Decitabine 1.5 μM): −0.05
- Effect size (BIGL, HSA null model), MV4-11 Cell Proliferation (Compound 51 0.001 μm + Decitabine 3 μM): −0.04
- Effect size (BIGL, HSA null model), MV4-11 Cell Proliferation (Compound 51 0.001 μm + Gilteritinib 0.0005 μM): −0.03
- Effect size (BIGL, HSA null model), MV4-11 Cell Proliferation (Compound 51 0.001 μm + Gilteritinib 0.005 μM): −0.01
- Effect size (BIGL, HSA null model), MV4-11 Cell Proliferation (Compound 51 0.001 μm + Gilteritinib 0.01 μM): −0.03
- Effect size (BIGL, HSA null model), MV4-11 Cell Proliferation (Compound 51 0.001 μm + Gilteritinib 0.05 μM): −0.01
- Effect size (BIGL, HSA null model), MV4-11 Cell Proliferation (Compound 51 0.001 μm + Gilteritinib 0.3 μM): −0.01
- Effect size (BIGL, HSA null model), MV4-11 Cell Proliferation (Compound 51 0.001 μm + Gilteritinib 1 μM): −0.01
- Effect size (BIGL, HSA null model), MV4-11 Cell Proliferation (Compound 51 0.001 μm + Midostaurin 0.0012 μM): −0.02
- Effect size (BIGL, HSA null model), MV4-11 Cell Proliferation (Compound 51 0.001 μm + Midostaurin 0.006 μM): −0.01
- Effect size (BIGL, HSA null model), MV4-11 Cell Proliferation (Compound 51 0.001 μm + Midostaurin 0.025 μM): 0.05
- Effect size (BIGL, HSA null model), MV4-11 Cell Proliferation (Compound 51 0.001 μm + Midostaurin 0.05 μM): 0.07
- Effect size (BIGL, HSA null model), MV4-11 Cell Proliferation (Compound 51 0.001 μm + Midostaurin 0.1 μM): −0.03
- Effect size (BIGL, HSA null model), MV4-11 Cell Proliferation (Compound 51 0.001 μm + Midostaurin 0.5 μM): 0.03
- Effect size (BIGL, HSA null model), MV4-11 Cell Proliferation [1]: −0.1
- Synergy/antagonism call (maxR test), MV4-11 Cell Proliferation [1]: **
- Effect size (BIGL, HSA null model), MV4-11 Cell Proliferation [2]: −0.11
- Synergy/antagonism call (maxR test), MV4-11 Cell Proliferation [2]: **
- Effect size (BIGL, HSA null model), MV4-11 Cell Proliferation [3]: −0.23
- Synergy/antagonism call (maxR test), MV4-11 Cell Proliferation [3]: **
- Effect size (BIGL, HSA null model), MV4-11 Cell Proliferation (Compound 51 0.01 μm + Decitabine 1.5 μM): 0.01
- Effect size (BIGL, HSA null model), MV4-11 Cell Proliferation (Compound 51 0.01 μm + Decitabine 3 μM): −0.05
- Effect size (BIGL, HSA null model), MV4-11 Cell Proliferation [4]: −0.36
- Synergy/antagonism call (maxR test), MV4-11 Cell Proliferation [4]: **
- Effect size (BIGL, HSA null model), MV4-11 Cell Proliferation (Compound 51 0.01 μm + Gilteritinib 0.005 μM): −0.02
- Effect size (BIGL, HSA null model), MV4-11 Cell Proliferation (Compound 51 0.01 μm + Gilteritinib 0.01 μM): −0.02
- Effect size (BIGL, HSA null model), MV4-11 Cell Proliferation (Compound 51 0.01 μm + Gilteritinib 0.05 μM): −0.02
- Effect size (BIGL, HSA null model), MV4-11 Cell Proliferation (Compound 51 0.01 μm + Gilteritinib 0.3 μM): −0.02
- Effect size (BIGL, HSA null model), MV4-11 Cell Proliferation (Compound 51 0.01 μm + Gilteritinib 1 μM): −0.02
- Effect size (BIGL, HSA null model), MV4-11 Cell Proliferation (Compound 51 0.01 μm + Midostaurin 0.0012 μM): −0.06
- Effect size (BIGL, HSA null model), MV4-11 Cell Proliferation (Compound 51 0.01 μm + Midostaurin 0.006 μM): −0.13
- Effect size (BIGL, HSA null model), MV4-11 Cell Proliferation (Compound 51 0.01 μm + Midostaurin 0.025 μM): −0.14
- Effect size (BIGL, HSA null model), MV4-11 Cell Proliferation (Compound 51 0.01 μm + Midostaurin 0.05 μM): −0.11
- Effect size (BIGL, HSA null model), MV4-11 Cell Proliferation (Compound 51 0.01 μm + Midostaurin 0.1 μM): −0.04
- Effect size (BIGL, HSA null model), MV4-11 Cell Proliferation (Compound 51 0.01 μm + Midostaurin 0.5 μM): 0.03
- Effect size (BIGL, HSA null model), MV4-11 Cell Proliferation (Compound 51 0.05 μm + Decitabine 0.0015 μM): 0.02
- Effect size (BIGL, HSA null model), MV4-11 Cell Proliferation (Compound 51 0.05 μm + Decitabine 0.035 μM): −0.07
- Effect size (BIGL, HSA null model), MV4-11 Cell Proliferation [5]: −0.23
- Synergy/antagonism call (maxR test), MV4-11 Cell Proliferation [5]: **
- Effect size (BIGL, HSA null model), MV4-11 Cell Proliferation [6]: −0.11
- Synergy/antagonism call (maxR test), MV4-11 Cell Proliferation [6]: **
- Effect size (BIGL, HSA null model), MV4-11 Cell Proliferation (Compound 51 0.05 μm + Decitabine 3 μM): −0.06
- Effect size (BIGL, HSA null model), MV4-11 Cell Proliferation [7]: −0.18
- Synergy/antagonism call (maxR test), MV4-11 Cell Proliferation [7]: **
- Effect size (BIGL, HSA null model), MV4-11 Cell Proliferation (Compound 51 0.05 μm + Gilteritinib 0.005 μM): −0.03
- Effect size (BIGL, HSA null model), MV4-11 Cell Proliferation (Compound 51 0.05 μm + Gilteritinib 0.01 μM): −0.02
- Effect size (BIGL, HSA null model), MV4-11 Cell Proliferation (Compound 51 0.05 μm + Gilteritinib 0.05 μM): −0.02

Reference: patent US20260191835A1, “COMBINATIONS COMPRISING A MENIN-MLL INHIBITOR AND AT LEAST ONE OTHER THERAPEUTIC AGENT” (JANSSEN PHARMACEUTICA NV, priority 2022, published 2026)
